# Results: US7435721B2, “Transport peptides such as C-terminal Erns peptide and analogues thereof” (Pepscan Systems B.V., priority 2000, dated 2008)
# Legend:
# guinea pig erythrocytes = assay: Hemolytic assay, guinea pig erythrocytes; format: cell-based; conditions: 1% v/v, one hour at 37° C.
# Procedure: Hemolytic assay. Hemolytic activity of various peptide concentrations was determined by incubation with human, guinea pig or sheep erythrocyte suspensions (final erythrocyte concentration, 1% v/v) for one hour at 37° C. After cooling and centrifugation, the optical density of the supernatants were measured at 540 nm. Peptide concentrations causing 50% hemolysis (EC50) were derived from the dose-response curves.
# [1] = system: Escherichia coli ATCC 25922; assay: Antimicrobial assay (MIC), E. coli; format: cell-based; conditions: overnight at 37° C.
# Procedure: Antimicrobial assay. Two bacterial strains (Escherichia coli ATCC 25922 and Enterococcus faecalis ATCC 29212) were inoculated on heart infusion agar with 5% sheep blood and incubated aerobically overnight at 37° C. From the pure cultures, suspensions were made in saline to a density of 0.5 McFarland. These suspensions were diluted ten-fold in Mueller Hinton II broth, resulting in a final inoculum of approximately 10^7 cfu/ml.
# Standard 96-well microtiter trays were filled with 100 ill of two-fold dilutions of peptide in physiologic salt solution in each well, resulting in the following concentration range: 4000, 2000, 1000, 500, 250, 125, 62.25, 31.63, 15.82, 7.96 and 0 μg/ml. The trays in column 12 were filled with 200 μl MH II broth (negative control).
# Columns 1-11 of the microtiter trays were filled with 100 μl of the final inoculum of the bacterial suspensions, thus diluting the concentrations of the peptide two fold, resulting in the following peptide concentration range in the wells: 2000, 1000, 500, 250, 125, 62.25, 31.63, 15.82, 7.96, 3.98 and 0 μg/ml. In rows B, C and D, 100 μl of the final inoculum of E. coli and, in rows E, F and G, 100 μl of the final inoculum of E. faecalis was pipetted. The final bacterial concentration was approximately 5×10^5 cfu/well. All trays were sealed and incubated overnight at 37° C. After incubation, the microtiter trays were inspected visually for bacterial growth and the absorbance of the cultures at 630 nm (A630) was determined with an ELISA-reader. […] The experiment was performed independently in triplicate. The test was repeated again in triplicate after two days with the final peptide concentration range in the wells: 5000, 2500, 1250, 625, 312.5, 156.25, 78.12, 39.06, 19.58, 9.79, 4.88, 2.44 and 1.22 μg/ml.
smiles,measurement,setting,value
CC[C@H](C)[C@H](NC(=O)[C@H](CCCNC(=N)N)NC(=O)[C@H](CC(C)C)NC(=O)[C@H](CCC(N)=O)NC(=O)[C@H](CCCNC(=N)N)NC(=O)CNC(=O)[C@H](CC(C)C)NC(=O)[C@H](Cc1c[nH]c2ccccc12)NC(=O)[C@H](CO)NC(=O)[C@@H](NC(=O)[C@@H](NC(=O)[C@H](CCCNC(=N)N)NC(=O)[C@H](C)NC(=O)[C@H](C)NC(=O)CNC(=O)[C@H](CCC(N)=O)NC(=O)[C@H](CCCNC(=N)N)NC(=O)[C@H](C)NC(=O)[C@H](CC(N)=O)NC(=O)[C@H](CCC(=O)O)NC(=O)[C@@H](NC(=O)[C@@H](NC(=O)[C@H](CC(N)=O)NC(=O)[C@@H](NC(=O)[C@H](CCSC)NC(=O)CNC(=O)[C@H](CC(=O)O)NC(=O)[C@H](CC(C)C)NC(=O)[C@H](CC(C)C)NC(=O)[C@H](Cc1ccc(O)cc1)NC(=O)[C@H](CC(C)C)NC(=O)[C@H](C)NC(=O)[C@@H](NC(=O)[C@H](CC(=O)O)NC(=O)CCCC[C@@H]1SC[C@@H]2NC(=O)N[C@@H]21)[C@@H](C)O)[C@@H](C)O)[C@@H](C)O)[C@@H](C)CC)C(C)C)[C@@H](C)O)C(=O)N[C@@H](C)C(=O)NCC(=O)N[C@@H](CCCCN)C(=O)N[C@@H](CCCNC(=N)N)C(=O)N[C@@H](CC(C)C)C(=O)N[C@@H](CCC(=O)O)C(N)=O [177-216],Hemolysis (peptide concentration causing 50% hemolysis),guinea pig erythrocytes,0.23 mg/mL
same,MIC (minimal inhibitory concentration needed to inhibit bacterial growth),[1],224 µg/mL
CC[C@H](C)[C@H](NC(=O)[C@H](CCCNC(=N)N)NC(=O)[C@H](CC(C)C)NC(=O)[C@H](CCC(N)=O)NC(=O)[C@H](CCCNC(=N)N)NC(=O)CNC(=O)[C@H](CC(C)C)NC(=O)[C@H](Cc1c[nH]c2ccccc12)NC(=O)[C@H](CO)NC(=O)[C@@H](NC(=O)[C@@H](NC(=O)[C@H](CCCNC(=N)N)NC(=O)[C@H](C)NC(=O)[C@H](C)NC(=O)CNC(=O)[C@H](CCC(N)=O)NC(=O)[C@H](CCCNC(=N)N)NC(=O)[C@H](C)NC(=O)[C@H](CC(N)=O)NC(=O)[C@H](CCC(=O)O)NC(=O)[C@@H](NC(=O)[C@@H](NC(=O)[C@H](CC(N)=O)NC(=O)[C@@H](NC(=O)[C@H](CCSC)NC(=O)CNC(=O)[C@H](CC(=O)O)NC(=O)[C@H](CC(C)C)NC(=O)[C@H](CC(C)C)NC(=O)[C@H](Cc1ccc(O)cc1)NC(=O)CCCC[C@@H]1SC[C@@H]2NC(=O)N[C@@H]21)[C@@H](C)O)[C@@H](C)O)[C@@H](C)CC)C(C)C)[C@@H](C)O)C(=O)N[C@@H](C)C(=O)NCC(=O)N[C@@H](CCCCN)C(=O)N[C@@H](CCCNC(=N)N)C(=O)N[C@@H](CC(C)C)C(=O)N[C@@H](CCC(=O)O)C(=O)NCC(=O)N[C@@H](CCCNC(=N)N)C(=O)N[C@@H](CO)C(=O)N[C@@H](CCCCN)C(N)=O [181-220],Hemolysis (peptide concentration causing 50% hemolysis),guinea pig erythrocytes,0.09 mg/mL
same,MIC (minimal inhibitory concentration needed to inhibit bacterial growth),[1],51 µg/mL
CC[C@H](C)[C@H](NC(=O)[C@H](CCCNC(=N)N)NC(=O)[C@H](CC(C)C)NC(=O)[C@H](CCC(N)=O)NC(=O)[C@H](CCCNC(=N)N)NC(=O)CNC(=O)[C@H](CC(C)C)NC(=O)[C@H](Cc1c[nH]c2ccccc12)NC(=O)[C@H](CO)NC(=O)[C@@H](NC(=O)[C@@H](NC(=O)[C@H](CCCNC(=N)N)NC(=O)[C@H](C)NC(=O)[C@H](C)NC(=O)CNC(=O)[C@H](CCC(N)=O)NC(=O)[C@H](CCCNC(=N)N)NC(=O)[C@H](C)NC(=O)[C@H](CC(N)=O)NC(=O)[C@H](CCC(=O)O)NC(=O)[C@@H](NC(=O)[C@@H](NC(=O)[C@H](CC(N)=O)NC(=O)[C@@H](NC(=O)[C@H](CCSC)NC(=O)CNC(=O)[C@H](CC(=O)O)NC(=O)CCCC[C@@H]1SC[C@@H]2NC(=O)N[C@@H]21)[C@@H](C)O)[C@@H](C)O)[C@@H](C)CC)C(C)C)[C@@H](C)O)C(=O)N[C@@H](C)C(=O)NCC(=O)N[C@@H](CCCCN)C(=O)N[C@@H](CCCNC(=N)N)C(=O)N[C@@H](CC(C)C)C(=O)N[C@@H](CCC(=O)O)C(=O)NCC(=O)N[C@@H](CCCNC(=N)N)C(=O)N[C@@H](CO)C(=O)N[C@@H](CCCCN)C(=O)N[C@H](C(=O)N[C@@H](Cc1c[nH]c2ccccc12)C(=O)N[C@@H](Cc1ccccc1)C(N)=O)[C@@H](C)O [184-223],Hemolysis (peptide concentration causing 50% hemolysis),guinea pig erythrocytes,0.15 mg/mL
same,MIC (minimal inhibitory concentration needed to inhibit bacterial growth),[1],46 µg/mL
CC[C@H](C)[C@H](NC(=O)[C@H](CCCNC(=N)N)NC(=O)[C@H](CC(C)C)NC(=O)[C@H](CCC(N)=O)NC(=O)[C@H](CCCNC(=N)N)NC(=O)CNC(=O)[C@H](CC(C)C)NC(=O)[C@H](Cc1c[nH]c2ccccc12)NC(=O)[C@H](CO)NC(=O)[C@@H](NC(=O)[C@@H](NC(=O)[C@H](CCCNC(=N)N)NC(=O)[C@H](C)NC(=O)[C@H](C)NC(=O)CNC(=O)[C@H](CCC(N)=O)NC(=O)[C@H](CCCNC(=N)N)NC(=O)[C@H](C)NC(=O)[C@H](CC(N)=O)NC(=O)[C@H](CCC(=O)O)NC(=O)CCCC[C@@H]1SC[C@@H]2NC(=O)N[C@@H]21)C(C)C)[C@@H](C)O)C(=O)N[C@@H](C)C(N)=O [191-211],Hemolysis (peptide concentration causing 50% hemolysis),guinea pig erythrocytes,>0.33 mg/mL
same,MIC (minimal inhibitory concentration needed to inhibit bacterial growth),[1],395 µg/mL
CC[C@H](C)[C@H](NC(=O)[C@H](CCCNC(=N)N)NC(=O)[C@H](CC(C)C)NC(=O)[C@H](CCC(N)=O)NC(=O)[C@H](CCCNC(=N)N)NC(=O)CNC(=O)[C@H](CC(C)C)NC(=O)[C@H](Cc1c[nH]c2ccccc12)NC(=O)[C@H](CO)NC(=O)[C@@H](NC(=O)[C@@H](NC(=O)[C@H](CCCNC(=N)N)NC(=O)[C@H](C)NC(=O)[C@H](C)NC(=O)CNC(=O)[C@H](CCC(N)=O)NC(=O)[C@H](CCCNC(=N)N)NC(=O)[C@H](C)NC(=O)[C@H](CC(N)=O)NC(=O)[C@H](CCC(=O)O)NC(=O)CCCC[C@@H]1SC[C@@H]2NC(=O)N[C@@H]21)C(C)C)[C@@H](C)O)C(=O)N[C@@H](C)C(=O)NCC(=O)N[C@@H](CCCCN)C(=O)N[C@@H](CCCNC(=N)N)C(=O)N[C@@H](CC(C)C)C(=O)N[C@@H](CCC(=O)O)C(N)=O [191-216],Hemolysis (peptide concentration causing 50% hemolysis),guinea pig erythrocytes,>0.33 mg/mL
same,MIC (minimal inhibitory concentration needed to inhibit bacterial growth),[1],95 µg/mL
CC[C@H](C)[C@H](NC(=O)[C@H](CCCNC(=N)N)NC(=O)[C@H](CC(C)C)NC(=O)[C@H](CCC(N)=O)NC(=O)[C@H](CCCNC(=N)N)NC(=O)CNC(=O)[C@H](CC(C)C)NC(=O)[C@H](Cc1c[nH]c2ccccc12)NC(=O)[C@H](CO)NC(=O)[C@@H](NC(=O)[C@@H](NC(=O)[C@H](CCCNC(=N)N)NC(=O)[C@H](C)NC(=O)[C@H](C)NC(=O)CNC(=O)[C@H](CCC(N)=O)NC(=O)[C@H](CCCNC(=N)N)NC(=O)[C@H](C)NC(=O)[C@H](CC(N)=O)NC(=O)[C@H](CCC(=O)O)NC(=O)CCCC[C@@H]1SC[C@@H]2NC(=O)N[C@@H]21)C(C)C)[C@@H](C)O)C(=O)N[C@@H](C)C(=O)NCC(=O)N[C@@H](CCCCN)C(=O)N[C@@H](CCCNC(=N)N)C(=O)N[C@@H](CC(C)C)C(=O)N[C@@H](CCC(=O)O)C(=O)NCC(=O)N[C@@H](CCCNC(=N)N)C(=O)N[C@@H](CO)C(=O)N[C@@H](CCCCN)C(N)=O [191-220],Hemolysis (peptide concentration causing 50% hemolysis),guinea pig erythrocytes,0.31 mg/mL
same,MIC (minimal inhibitory concentration needed to inhibit bacterial growth),[1],47 µg/mL
